Assays:
PGA-1 cells [1] = conditions: 10 µM
HG-3 cells [2] = conditions: 10 µM
PGA-1 cells [3] = assay: alamarBlue cell viability assay; conditions: PGA-1, 1 µM
HG-3 cells [4] = assay: alamarBlue cell viability assay

O=C(C=CC12c3ccccc3C(c3ccccc31)C1C(=O)N(c3ccccc3)C(=O)C12)c1ccc([N+](=O)[O-])cc1 (stereo not shown) [Compound 24b, 9-(E)-3-(4-Nitrophenyl)-3-oxoprop-1-en-1-yl)-13-phenyl-9,10-dihydro-9,10-[3,4]epipyrroloanthracene-12,14-dione]
cell viability (PGA-1 cells [1]): 22% | cell viability (HG-3 cells [2]): 10%

O=C(C=CC12c3ccccc3C(c3ccccc31)C1C(=O)N(c3ccccc3)C(=O)C12)c1ccco1 (stereo not shown) [Compound 24o, 9-(E)-3-(Furan-2-yl)-3-oxoprop-1-en-1-yl)-13-phenyl-9,10-dihydro-9,10-[3,4]epipyrroloanthracene-12,14-dione]
cell viability (PGA-1 cells [1]): 9% | cell viability (HG-3 cells [2]): 3%

O=C(C=CC12c3ccccc3C(c3ccccc31)C1C(=O)N(c3ccc(Cl)cc3)C(=O)C12)c1ccc(I)cc1 (stereo not shown) [Compound 25g, (E)-13-(4-Chlorophenyl)-9-(3-(4-iodophenyl)-3-oxoprop-1-en-1-yl)-9,10-dihydro-9,10-[3,4]epipyrroloanthracene-12,14-dione]
cell viability (PGA-1 cells [1]): 33%

O=C(C=CC12c3ccccc3C(c3ccccc31)C1C(=O)N(c3ccc(Cl)cc3)C(=O)C12)c1ccc(Cl)cc1 (stereo not shown) [Compound 25l, (E)-13-(4-Chlorophenyl)-9-(3-(4-chlorophenyl)-3-oxoprop-1-en-1-yl)-9,10-dihydro-9,10-[3,4]epipyrroloanthracene-12,14-dione]
cell viability (PGA-1 cells [1]): 24%

O=C(C=CC12c3ccccc3C(c3ccccc31)C1C(=O)N(c3ccc(Cl)cc3)C(=O)C12)c1ccco1 (stereo not shown) [Compound 25o, (E)-13-(4-Chlorophenyl)-9-(3-(furan-2-yl)-3-oxoprop-1-en-1-yl)-9,10-dihydro-9,10-[3,4]epipyrroloanthracene-12,14-dione]
cell viability (PGA-1 cells [1]): 14% | cell viability (HG-3 cells [2]): 5%

O=C(/C=C/C12c3ccccc3C(c3ccccc31)C1C(=O)N(c3ccc(C(=O)c4ccccc4)cc3)C(=O)C12)c1ccncc1 (stereo not shown) [Compound 26m, (E)-13-(4-Benzoylphenyl)-9-(3-oxo-3-(pyridin-4-yl)prop-1-en-1-yl)-9,10-dihydro-9,10-[3,4]epipyrroloanthracene-12,14-dione]
decrease in cell viability compared to 26f (PGA-1 cells [3]): 64% | cell viability (PGA-1 cells [1]): 17% | decrease in cell viability compared to 26f (HG-3 cells [4]; HG-3, 1 µM): 64% | decrease in cell viability compared to 26f (HG-3 cells [4]; HG-3, 10 µM): 59% | cell viability (HG-3 cells [2]): 27%

O=C(c1ccccc1)c1ccc(N2C(=O)C3C4c5ccccc5C(C=CC(=O)c5ccco5)(c5ccccc54)C3C2=O)cc1 (stereo not shown) [Compound 26o, (E)-13-(4-Benzoylphenyl)-9-(3-(furan-2-yl)-3-oxoprop-1-en-1-yl)-9,10-dihydro-9,10-[3,4]epipyrroloanthracene-12,14-dione]
cell viability (PGA-1 cells [1]): 9% | cell viability (HG-3 cells [2]): 15%

(E)-13-(4-Chlorophenyl)-9-(3-(4-nitrophenyl)-3-oxoprop-1-en-1-yl)-9,10-dihydro-9,10-[3,4]epipyrroloanthracene-12,14-dione [Compound 25b]
cell viability (PGA-1 cells [1]): 34% | cell viability (HG-3 cells [2]): 35%

(E)-13-(4-Chlorophenyl)-9-(3-oxo-3-(pyridin-4-yl)prop-1-en-1-yl)-9,10-dihydro-9,10-[3,4]epipyrroloanthracene-12,14-dione [Compound 25m]
cell viability (PGA-1 cells [1]): 28% | cell viability (HG-3 cells [2]): 8%
